Assay results taken from PMC11997059, “Drugit: crowd-sourcing molecular design of non-peptidic VHL binders” (Nature Communications, 2025).
≈ marks a conversion by molar mass, not a printed value. Where two headings read alike, the source gives them in different places.

Tests used:
[1] = Solubility testing (aqueous, LCUV); type: physicochemical; conditions: aqueous buffer, kinetic from dmso stock, pH 6.8, final concentration 125 µg/mL
Experimental: Dilution into a 1:1 mixture of acetonitrile and water was used as a reference. After 24 h, the incubations were filtrated, and the filtrate was analyzed by LCUV.

[2] = Bidirectional permeability in Caco2 cells; type: in vitro ADME; conditions: human, Caco-2, 1 or 10 µM, pH 7.4; for Papp A→B: apical to basolateral
Experimental: Bidirectional permeability of test compounds across a Caco2 cell monolayer was measured as described previously. […] Cells were incubated with the compounds for up to 2 h, and samples from the opposite (receiver) compartment were taken at different time points.

VHL = conditions: read-out: TR-FRET IC50 (value marked *: FP assay), ref as reported previously; cited from earlier work
[3] = molecular target: VCB (VHL-ElonginC-ElonginB) complex (Homo sapiens, UniProt P40337); test: TR-FRET VCB—VHL tracer binding assay
[4] = molecular target: 13C-methyl labeled VCB complex (Homo sapiens, UniProt P40337); test: Protein-observed NMR titration / hit validation; conditions: for induced CSPs, Val and Leu region (binding region): 200 µM 13C labeled VCB, 500 µM VH298 or reference molecule 2, 1000 µM of 1
[5] = NMR detected solubility in NMR buffer; type: physicochemical; conditions: 500 µM target, 20 mM TRIS, 100 mM NaCl, pH 7.5 in D2O, 1H NMR vs maleic acid
[6] = read-out: TR-FRET IC50, Cy5-labeled VHL tracer, 10 nM His-tagged VCB, mean ± s.d., 1 as diastereomeric mixture

Sequence of 13C-methyl labeled VCB complex (P40337 54-213): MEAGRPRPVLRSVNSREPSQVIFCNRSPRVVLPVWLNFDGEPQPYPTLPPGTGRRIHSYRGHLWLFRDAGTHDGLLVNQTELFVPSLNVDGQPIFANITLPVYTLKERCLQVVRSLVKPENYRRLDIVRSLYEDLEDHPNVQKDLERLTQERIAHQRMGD
Sequence of 13C-methyl labeled VCB complex (Q15370 1-104 partner limits assumed): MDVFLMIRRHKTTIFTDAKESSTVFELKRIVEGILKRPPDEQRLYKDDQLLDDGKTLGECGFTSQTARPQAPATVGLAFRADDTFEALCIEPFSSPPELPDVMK
Sequence of 13C-methyl labeled VCB complex (Q15369 17-112 partner limits assumed): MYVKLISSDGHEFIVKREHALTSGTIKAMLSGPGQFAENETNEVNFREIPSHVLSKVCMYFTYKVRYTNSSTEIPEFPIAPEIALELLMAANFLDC
Sequence of VCB (VHL-ElonginC-ElonginB) complex (P40337 54-213): as the sequence (P40337 54-213) above
Sequence of VCB (VHL-ElonginC-ElonginB) complex (Q15370 1-104 partner limits assumed): as the sequence (Q15370 1-104 partner limits assumed) above
Sequence of VCB (VHL-ElonginC-ElonginB) complex (Q15369 17-112 partner limits assumed): as the sequence (Q15369 17-112 partner limits assumed) above

| Structure (SMILES) | IC50 [3, 6] | solubility [5] | also measured |
| --- | --- | --- | --- |
| Cc1ncsc1-c1ccc(CNC(=O)[C@@H]2C[C@@H](O)CN2C(=O)[C@@H](NC(=O)C2(F)CC2)C(C)(C)C)cc1 [Reference molecule 1] | – | – | solubility at 24 h [1]: > 115 µg/mL; Papp A→B [2]: 2.9 ×10⁻⁶ cm/s; IC50 (VHL): […] |
| Cc1cc(CC(=O)N2C[C@H](O)C[C@H]2C(=O)NCc2ccc(Cl)cc2)on1 [Reference molecule 2] | 132 ± 38 µM | – | solubility at 24 h [1]: > 88 µg/mL; induced CSPs, Val and Leu region (binding region) [4]: interact with the same binding region; Kd ([4]; read-out: NMR KD, fit of dose-dependent chemical shifts of peaks #1 and #2, two independent titrations): 29 ± 1 µM; efflux ratio [2]: 4.8 |
| Cc1ncsc1-c1ccc(CNC(=O)[C@@H]2C[C@@H](O)CN2C(=O)[C@@H](NC(=O)C2(C#N)CC2)C(C)(C)C)cc1 [VH298, (2S,4R)-1-((S)-2-(1-Cyanocyclopropanecarboxamido)−3,3-dimethylbutanoyl)-4-hydroxy-N-(4-(4-methylthiazol-5-yl)benzyl)pyrrolidine-2-carboxamide] | – | – | induced CSPs, Val and Leu region (binding region) [4]: interact with the same binding region |
| Cc1ncsc1-c1ccc(CNC(=O)C2CC(O)CN(c3ccccn3)C2=O)cc1 (centres unmarked) [compound 1] | – | – | IC50 [3]: 264 ± 30 µM; solubility ([5]; NMR buffer, aqueous buffer): > 500 µM; solubility at 24 h [1]: > 98 µg/mL; Kd [4]: 182 ± 76 µM; induced CSPs, Val and Leu region (binding region) [4]: interact with the same binding region; Papp A→B [2]: 23 ×10⁻⁶ cm/s |
| Cc1ncsc1-c1ccc(CNC(=O)c2cc(=O)cc(Cl)[nH]2)cc1 [compound 2] | > 100 µM | 20.0 µM (≈ 7.2 µg/mL) | – |
| Cc1ncsc1-c1ccc(CNC(=O)c2cc(=O)cc(-c3ccccc3)[nH]2)cc1 [compound 3] | 13.8 ± 1.8 µM | 280.0 µM (≈ 112 µg/mL) | – |
| Cc1ncsc1-c1ccc(CNC(=O)c2c[nH]cc(Br)c2=O)cc1 [compound 4] | > 100 µM | – | solubility ([5]; NMR buffer, aqueous buffer): 40 µM (≈ 16.2 µg/mL) |
| Cc1ncsc1-c1ccc(CNC(=O)c2c[nH]cc(-c3ccccc3)c2=O)cc1 [compound 5] | > 100 µM | 20.0 µM (≈ 8.03 µg/mL) | – |
| Cc1ncsc1-c1ccc(CNCc2cc(CO)nc(N(C)c3ccccc3)c2)cc1 [compound 6] | > 500 µM | 70.0 µM (≈ 30.1 µg/mL) | – |
| Cc1ncsc1-c1ccc(CN(Cc2cc(Cl)nc(CO)c2)C(=O)OC(C)(C)C)cc1 [compound 7] | 106 ± 5.2 µM | 60.0 µM (≈ 27.6 µg/mL) | – |
| CN(CCNCc1ccccc1)c1cnn[nH]1 [compound 8] | > 500 µM | 430.0 µM (≈ 99.5 µg/mL) | – |
| Cc1ncsc1-c1ccc(CNc2cc(CO)cc3c2cnn3C)cc1 [compound 9] | – | – | IC50 [3]: > 100 µM; solubility ([5]; NMR buffer, aqueous buffer): 110 µM (≈ 40.1 µg/mL) |
| Cc1ncsc1-c1ccc(CNc2cc(CO)cc3nn(C)cc23)cc1 [compound 10] | – | – | IC50 [3]: 167 ± 47 µM; solubility ([5]; NMR buffer, aqueous buffer): 240 µM (≈ 87.5 µg/mL) |
| Cc1ncsc1-c1ccc(C(=O)Nc2cc(CO)cc3c2cnn3C)cc1 [compound 11] | > 500 µM | 180.0 µM (≈ 68.1 µg/mL) | – |
| Cc1ncsc1-c1ccc(C(=O)Nc2cc(CO)cc3nn(C)cc23)cc1 [compound 12] | 255 ± 45 µM | 70.0 µM (≈ 26.5 µg/mL) | – |
| Cc1ncsc1-c1ccc(CNC(=O)c2cc(O)cc(Br)c2)cc1 [compound 13] | > 100 µM | 20.0 µM (≈ 8.07 µg/mL) | – |
| Cc1ncsc1-c1ccc(CNC(=O)c2cc(O)cc(-c3ccccc3)c2)cc1 [compound 14] | 15.6 ± 1.2 µM | < 10.0 µM | – |
| Cc1ncsc1-c1ccc(-c2ccc3cccc(C(N)=O)c3c2)cc1 [compound 15] | – | – | solubility ([5]; NMR buffer, aqueous buffer): < 10 µM |
| Cc1ncsc1-c1ccc(-c2ccc3nccc(C(N)=O)c3c2)cc1 [compound 16] | 8.8 ± 0.8 µM | < 10.0 µM | – |
| Cc1ncsc1-c1ccc(CNC(=O)[C@@H]2C[C@@H](O)Cc3ccccc32)cc1 [compound 17] | 313 ± 135 µM | 400.0 µM (≈ 151 µg/mL) | – |
| Cc1ncsc1-c1ccc(CNC(=O)[C@H]2C[C@H](O)Cc3ccccc32)cc1 [compound 18] | 166 ± 77 µM | > 500.0 µM | – |

| Structure (SMILES) | IC50 [3, 6] | solubility [5] | also measured |
| --- | --- | --- | --- |
| Cc1ncsc1-c1ccc(CNC(=O)C2CC(O)CN(c3ccccn3)C2)cc1 (centres unmarked) [compound 19] | > 100 µM | 230.0 µM (≈ 94 µg/mL) | – |
| O=C(Cc1ccc2cc(O)ccc2c1)Nc1cc[nH]n1 [compound 22] | – | – | IC50 [3]: 315 ± 44 µM; solubility ([5]; NMR buffer, aqueous buffer): 350 µM (≈ 93.6 µg/mL) |
| Cc1ncsc1-c1ccc(CNC(=O)C2CC(O)CC(c3ccccc3)C2)cc1 (centres unmarked) [compound 23] | > 100 µM | 110.0 µM (≈ 44.7 µg/mL) | – |
| Cc1ncsc1-c1ccc(CNC(=O)[C@@H]2C[C@@H](O)C[C@H](c3ccccc3)C2)cc1 [compound 24] | – | – | IC50 [3]: > 100 µM; solubility ([5]; NMR buffer, aqueous buffer): < 10 µM |
| Cc1ncsc1-c1ccc(CNC(=O)[C@H]2C[C@H](O)C[C@@H](c3ccccc3)C2)cc1 [compound 25] | – | – | IC50 [3]: > 100 µM; solubility ([5]; NMR buffer, aqueous buffer): < 10 µM |
| O=S1(=O)Cc2ccccc2-c2[nH]ncc21 [compound 26] | – | – | IC50 [3]: 265 ± 74 µM; solubility ([5]; NMR buffer, aqueous buffer): > 500 µM |
| O=S1(=O)Cc2ccccc2-c2[nH]nc(Br)c21 [compound 27] | > 500 µM | > 500.0 µM | – |
| O=S1(=O)Cc2ccccc2-c2[nH]nc(NCc3ccccc3)c21 [compound 28] | 244 ± 22 µM | 360.0 µM (≈ 117 µg/mL) | – |
| O=[N+]([O-])c1ccc2c(c1)CS(=O)(=O)c1cn[nH]c1-2 [compound 29] | 175 ± 18 µM | – | – |
| Cc1ncsc1-c1ccc(CNc2cc(C(C)C)c[nH]c2=O)cc1 [compound 33] | – | – | IC50 [3]: 71.7 ± 49.3 µM; solubility ([5]; NMR buffer, aqueous buffer): 50 µM (≈ 17 µg/mL) |
| Cc1ncsc1-c1ccc(CNC(=O)c2cc(Br)c[nH]c2=O)cc1 [compound 34] | > 100 µM | 20.0 µM (≈ 8.09 µg/mL) | – |
| Cc1ncsc1-c1ccc(CNC(=O)c2cc(-c3ccccc3)c[nH]c2=O)cc1 [compound 35] | – | < 10.0 µM | – |
| Cc1ncsc1-c1ccc(CC(=O)Nc2c[nH]c3ccccc23)cc1 [compound 36] | 13 ± 4.5 µM | < 10.0 µM | – |
| Cc1ncsc1-c1ccc(CNC(=O)Cc2ccc(-c3ccccc3)cc2CO)cc1 [compound 37] | > 100 µM | < 10.0 µM | – |
| Cc1ncsc1-c1ccc(CNCc2cc(O)cc(Br)c2)cc1 [compound 38] | 85.7 ± 16.2 µM | 80.0 µM (≈ 31.1 µg/mL) | – |
| Cc1ncsc1-c1ccc(CN(Cc2cc(O)cc(Br)c2)C(=O)OC(C)(C)C)cc1 [compound 39] | 70.7 ± 0.4 µM | < 10.0 µM | – |
| Cc1ncsc1-c1ccc(CNCc2cc(O)cc(N(C)c3ccccc3)c2)cc1 [compound 40] | – | – | IC50 [3]: 67.8 ± 5.1 µM; solubility ([5]; NMR buffer, aqueous buffer): < 10 µM |
| Cc1ncsc1-c1ccc(CNC(=O)c2cc(Br)cc(=O)[nH]2)cc1 [compound 41] | > 100 µM | < 10.0 µM | – |
| Cc1ncsc1-c1ccc(CNC(=O)c2cc(C#N)cc(O)n2)cc1 [compound 42] | 144 ± 10 µM | > 500.0 µM | – |
| NC(=O)c1cn[nH]c1-c1cccc2ccccc12 [compound 43] | > 500 µM | > 500.0 µM | – |
